Values quoted from earlier work as cited in PMC11272189, “PNA5, A Novel Mas Receptor Agonist, Improves Neurovascular and Blood-Brain-Barrier Function in a Mouse Model of Vascular Cognitive Impairment and Dementia” (Aging and Disease, 2024).

Test system: healthy control mice
Settings: daily injections at 1mg/kg/day
Experimental: All use of animals in this study conformed to the guidelines approved by the Institutional Animal Care and Use Committee at the University of Arizona and in accordance with the National Institutes of Health Guidelines for the Care and Use of Laboratory Animals. Both the number of animals used, and their suffering were minimized. The number of animals needed for each experiment was determined using a G*Power analysis. Importantly for the present study, we have shown in previously published studies that treatment of healthy control mice with daily injections of PNA5 or the native peptide ...

Substance: Angiotensin-(1-7) (DRVYIHP; Angiotensin 1-7; UniProt P01019 25-31, looked up) [Ang-(1-7), native peptide]
- effect on heart function, cognitive function or circulating cytokines: no effect
